This passage reports IC50 and Ki results from US9102686B2, “5,6,7,8,9,10-hexahydro-6,10-epimino[1,2,4]triazolo[4,3-a]azocines as P2X7 modulators” (Janssen Pharmaceutica NV, priority 2013, dated 2015).

In assay [1] the target is T1, human P2X7 (Homo sapiens (Human), UniProt Q99572). Description: Ca2+ flux (FLIPR) in 1321N1 cells expressing recombinant human P2X7 channel. The class given is cell-based. The settings on record: human P2X7, 250 μM BzATP. As for the experimental part: (§1) P2X7 Antagonism in Recombinant hP2X7 Cells: (a) Ca^2+ Flux (b) Radioligand Binding
T1 sequence (Q99572 whole entry): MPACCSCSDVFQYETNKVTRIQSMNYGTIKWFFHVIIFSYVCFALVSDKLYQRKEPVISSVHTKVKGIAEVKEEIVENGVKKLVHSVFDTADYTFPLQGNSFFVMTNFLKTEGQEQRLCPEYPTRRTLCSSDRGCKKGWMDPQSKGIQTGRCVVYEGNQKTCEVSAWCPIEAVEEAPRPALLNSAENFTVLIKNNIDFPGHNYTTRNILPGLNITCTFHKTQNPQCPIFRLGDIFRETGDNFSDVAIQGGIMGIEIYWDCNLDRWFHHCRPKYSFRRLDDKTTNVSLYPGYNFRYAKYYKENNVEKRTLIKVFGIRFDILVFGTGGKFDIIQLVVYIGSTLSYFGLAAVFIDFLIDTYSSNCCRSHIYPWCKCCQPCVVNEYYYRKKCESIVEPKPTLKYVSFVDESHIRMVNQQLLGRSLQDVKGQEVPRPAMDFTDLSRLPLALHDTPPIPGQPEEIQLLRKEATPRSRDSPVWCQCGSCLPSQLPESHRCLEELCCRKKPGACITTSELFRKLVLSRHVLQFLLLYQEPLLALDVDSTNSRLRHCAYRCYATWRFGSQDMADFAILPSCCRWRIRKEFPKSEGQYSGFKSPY
(§2) (A) Ca^2+flux: 1321N1 cells expressing the recombinant human, rat or mouse P2X7 channel was cultured in HyQ DME/(HyClone/Dulbecco's Modified Eagle Medium) high glucose supplemented with 10% Fetal Bovine Serum (FBS) and appropriate selection marker. Cells were seeded at a density of 25000 cells/well (96-well clear bottom black walled plates) in 100 μl volume/well. On the day of the experiment, cell plates were washed with assay buffer, containing (in mM): 130 NaCl, 2 KCl, 1 CaCl2, 1 MgCl2, 10 HEPES, 5 glucose; pH 7.40 and 300 mOs. After the wash, cells were loaded with the Calcium-4 dye (Molecular Device) and incubated in the dark for 60 minutes. Test compounds were prepared at 250× the test concentration in neat DMSO. Intermediate 96-well compound plates were prepared by transferring 1.2 μL of the compound into 300 μL of assay buffer. A further 3× dilution occurred when transferring 50 μL/well of the compound plate to 100 μL/well in the cell plate. Cells were incubated with test compounds and dye for 30 minutes. […] The fluorescence change was measured 180 seconds after adding the agonist.
On the technique in general: Calcium assays in cells follow changes in intracellular calcium, usually with a dye or a luminescent sensor.

For assay [2], the target named is T1, human P2X7. The assay is described as follows: Radioligand binding, human P2X7-1321N1 cell membranes, tritiated A-804598. The settings on record: human P2X7-1321N1 membranes, tracer tritiated A-804598, 1 hour 4° C. As for the experimental part:
as §1
(B) Radioligand binding: human or rat P2X7-1321N1 cells were collected and frozen @−80° C. On the day of the experiment, cell membrane preparations were made according to standard published methods. […] The compound can be prepared as described in the literature. […] The assay was terminated by filtration (GF/B filters pre-soaked with 0.3% PEI) and washed with washing buffer (Tris-HCl 50 mM). The IC50 generated in the binding assay was corrected for tracer concentration and affinity of the tracer to derive at the affinity (Ki) of the test compounds.

A further assay deals with rat P2X7 (Rattus norvegicus (Rat), UniProt Q64663). The assay is described as follows: Ca2+ flux (FLIPR) in 1321N1 cells expressing recombinant rat P2X7 channel. The class given is cell-based. The settings on record: rat P2X7, 250 μM BzATP. As for the experimental part:
as §1, §2

rat P2X7, sequence (Q64663 whole entry): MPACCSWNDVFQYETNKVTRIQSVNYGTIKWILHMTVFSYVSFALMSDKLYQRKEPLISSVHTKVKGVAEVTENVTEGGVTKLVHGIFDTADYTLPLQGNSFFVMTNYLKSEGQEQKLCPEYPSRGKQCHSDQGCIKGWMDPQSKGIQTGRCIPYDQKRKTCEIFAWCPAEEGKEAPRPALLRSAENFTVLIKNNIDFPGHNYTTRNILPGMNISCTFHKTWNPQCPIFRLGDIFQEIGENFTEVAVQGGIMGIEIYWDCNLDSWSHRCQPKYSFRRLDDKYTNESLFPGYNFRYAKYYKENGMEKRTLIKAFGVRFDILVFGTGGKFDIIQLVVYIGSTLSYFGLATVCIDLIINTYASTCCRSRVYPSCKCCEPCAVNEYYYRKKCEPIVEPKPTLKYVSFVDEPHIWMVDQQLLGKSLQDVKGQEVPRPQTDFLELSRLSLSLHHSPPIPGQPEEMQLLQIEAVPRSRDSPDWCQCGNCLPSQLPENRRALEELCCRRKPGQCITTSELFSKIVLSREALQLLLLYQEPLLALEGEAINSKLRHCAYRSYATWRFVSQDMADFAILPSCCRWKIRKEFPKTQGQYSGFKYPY

Regarding `O=C(c1cccc(C(F)(F)F)c1Cl)N1[C@H]2CC[C@@H]1c1nnc(-c3ccc(F)cn3)n1C2` [Example 45, (6S,9R)-10-{[2-Chloro-3-(trifluoromethyl)phenyl]carbonyl}-3-(5-fluoropyridin-2-yl)-6,7,8,9-tetrahydro-5H-6,9-epimino[1,2,4]triazolo[4,3-a]azepine], the IC50 on human P2X7 [1] was found to be 0.0131 µM. In addition, on human P2X7 [2], the Ki stood at 0.0126 µM.

With `O=C(c1ccc(F)c(Cl)c1Cl)N1[C@H]2CC[C@@H]1c1nnc(-c3cnccn3)n1C2` [Example 47, (6S,9R)-10-[(2,3-Dichloro-4-fluorophenyl)carbonyl]-3-pyrazin-2-yl-6,7,8,9-tetrahydro-5H-6,9-epimino[1,2,4]triazolo[4,3-a]azepine], the IC50 at human P2X7 [1] was 0.0203 µM. On human P2X7 [2], this compound registered a Ki of 0.01 µM.

Consider `O=C(c1cccc(C(F)(F)F)c1Cl)N1[C@H]2CC[C@@H]1c1nnc(-c3cccnc3)n1C2` [Example 48, (6S,9R)-10-{[2-Chloro-3-(trifluoromethyl)phenyl]carbonyl}-3-pyridin-3-yl-6,7,8,9-tetrahydro-5H-6,9-epimino[1,2,4]triazolo[4,3-a]azepine], for which the IC50 at human P2X7 [1] worked out at 0.0132 µM. At human P2X7 [2], this compound came in with a Ki of 0.0398 µM.

Take `O=C(c1cccc(C(F)(F)F)c1Cl)N1[C@H]2CC[C@@H]1c1nnc(-c3ccc(Cl)s3)n1C2` [Example 55, (6S,9R)-3-(5-Chlorothiophen-2-yl)-10-{[2-chloro-3-(trifluoromethyl)phenyl]carbonyl}-6,7,8,9-tetrahydro-5H-6,9-epimino[1,2,4]triazolo[4,3-a]azepine]: the IC50 on human P2X7 [1] stood at 0.0171 µM. The compound also gave a Ki on human P2X7 [2] of 0.0251 µM.

On to `Cc1nc(-c2nnc3n2C[C@@H]2CC[C@H]3N2C(=O)c2cccc(C(F)(F)F)c2Cl)cs1` [Example 56, (6S,9R)-10-{[2-Chloro-3-(trifluoromethyl)phenyl]carbonyl}-3-(2-methyl-1,3-thiazol-4-yl)-6,7,8,9-tetrahydro-5H-6,9-epimino[1,2,4]triazolo[4,3-a]azepine], for which, at human P2X7 [1], the IC50 came out at 0.0308 µM.

As for `O=C(c1cccc(C(F)(F)F)c1Cl)N1[C@H]2CC[C@@H]1c1nnc(-c3cncs3)n1C2` [Example 57, (6S,9R)-10-{[2-Chloro-3-(trifluoromethyl)phenyl]carbonyl}-3-(1,3-thiazol-5-yl)-6,7,8,9-tetrahydro-5H-6,9-epimino[1,2,4]triazolo[4,3-a]azepine], the IC50 at human P2X7 [1] is 0.0977 µM; at rat P2X7, greater than 10 µM. This compound came in with a Ki on human P2X7 [2] of 0.0355 µM.

On to `O=C(c1cccc(C(F)(F)F)c1Cl)N1[C@H]2CC[C@@H]1c1nnc(-c3ccsc3)n1C2` [Example 58, (6S,9R)-10-{[2-Chloro-3-(trifluoromethyl)phenyl]carbonyl}-3-thiophen-3-yl-6,7,8,9-tetrahydro-5H-6,9-epimino[1,2,4]triazolo[4,3-a]azepine], for which the IC50 is 0.0017 µM at human P2X7 [1] and 0.713 µM on rat P2X7. Further, at human P2X7 [2], the Ki was determined as 0.01 µM.

Turning to `Cc1ncsc1-c1nnc2n1C[C@@H]1CC[C@H]2N1C(=O)c1cccc(C(F)(F)F)c1Cl` [Example 59, (6S,9R)-10-{[2-Chloro-3-(trifluoromethyl)phenyl]carbonyl}-3-(4-methyl-1,3-thiazol-5-yl)-6,7,8,9-tetrahydro-5H-6,9-epimino[1,2,4]triazolo[4,3-a]azepine], the IC50 at human P2X7 [1] is 0.101 µM; on rat P2X7, greater than 10 µM. At human P2X7 [2], this compound yielded a Ki of 0.126 µM.

In the case of `O=C(c1ccnc(C(F)(F)F)c1Cl)N1[C@H]2CC[C@@H]1c1nnc(-c3ccc(Cl)s3)n1C2` [Example 60, (6S,9R)-3-(5-Chlorothiophen-2-yl)-10-{[3-chloro-2-(trifluoromethyl)pyridin-4-yl]carbonyl}-6,7,8,9-tetrahydro-5H-6,9-epimino[1,2,4]triazolo[4,3-a]azepine], the IC50 was found to be 0.0149 µM at human P2X7 [1] and 2.34 µM at rat P2X7. Besides, at human P2X7 [2], the affinity corresponds to a Ki of 0.0219 µM.

What is called IC50 is the midpoint of a concentration-inhibition curve. Broadly, the Ki is a dissociation constant, usually derived from enzyme kinetics or from competition with a known ligand. Lower therefore signals a stronger hold on the target.
